# Measured values from ChEMBL document CHEMBL5724914, “Linking interpersonal differences in gut microbiota composition and drug biotransformation activity” (2024).
# Assay: (§1) The drug is tested on Z-006 corresponding to mouse gut metagenome with ENA study accession number: PRJEB37062 and ENA sample accession number: ERS12561806 for biotransformation under anaerobic condition. The drug concentrations were measured over 9 timepoints collected between 0 and 24 hours of incubation by liquid-chromatography-coupled mass spectrometry (LC–MS)
# Details: 2 µM
# Note: call rule not given here.
row,Bacterial Biotransformation,Structure (SMILES)
1,Compound metabolized,COC(=O)Nc1nc2ccc(C(=O)c3ccccc3)cc2[nH]1 [MEBENDAZOLE]
2,Compound NOT metabolized,CC(C)(C(=O)O)c1ccc(C(O)CCCN2CCC(C(O)(c3ccccc3)c3ccccc3)CC2)cc1 (stereo not given) [FEXOFENADINE]

# Assay: as §1, with “Z-025” for “Z-006”, “rabbit” for “mouse”, “ERS12561824” for “ERS12561806”
# Details: 2 µM
row,Bacterial Biotransformation,Structure (SMILES)
1,Compound metabolized,COC(=O)Nc1nc2ccc(C(=O)c3ccccc3)cc2[nH]1 [MEBENDAZOLE]
2,Compound NOT metabolized,CC(C)(C(=O)O)c1ccc(C(O)CCCN2CCC(C(O)(c3ccccc3)c3ccccc3)CC2)cc1 (stereo not given) [FEXOFENADINE]

# Assay: as §1, with “WLS-039” for “Z-006”, “human” for “mouse”, “ERS12561746” for “ERS12561806”
# Details: 2 µM
row,Bacterial Biotransformation,Structure (SMILES)
1,Compound metabolized,COC(=O)Nc1nc2ccc(C(=O)c3ccccc3)cc2[nH]1 [MEBENDAZOLE]
2,Compound NOT metabolized,CC(C)(C(=O)O)c1ccc(C(O)CCCN2CCC(C(O)(c3ccccc3)c3ccccc3)CC2)cc1 (stereo not given) [FEXOFENADINE]

# Details: human gut metagenome, 24 h, 2 µM
row,Bacterial Biotransformation,Structure (SMILES)
1,Compound metabolized,COC(=O)Nc1nc2ccc(C(=O)c3ccccc3)cc2[nH]1 [MEBENDAZOLE]
2,Compound NOT metabolized,CC(C)(C(=O)O)c1ccc(C(O)CCCN2CCC(C(O)(c3ccccc3)c3ccccc3)CC2)cc1 (stereo not given) [FEXOFENADINE]

# Details: human gut metagenome, 24 h, 2 µM
# Remark: another data set of the same source
row,Bacterial Biotransformation,Structure (SMILES)
1,Compound metabolized,COC(=O)Nc1nc2ccc(C(=O)c3ccccc3)cc2[nH]1 [MEBENDAZOLE]
2,Compound NOT metabolized,CC(C)(C(=O)O)c1ccc(C(O)CCCN2CCC(C(O)(c3ccccc3)c3ccccc3)CC2)cc1 (stereo not given) [FEXOFENADINE]

# Details: human gut metagenome, 24 h, 2 µM
# Remark: another data set of the same source
row,Bacterial Biotransformation,Structure (SMILES)
1,Compound metabolized,COC(=O)Nc1nc2ccc(C(=O)c3ccccc3)cc2[nH]1 [MEBENDAZOLE]
2,Compound NOT metabolized,CC(C)(C(=O)O)c1ccc(C(O)CCCN2CCC(C(O)(c3ccccc3)c3ccccc3)CC2)cc1 (stereo not given) [FEXOFENADINE]

# Assay: as §1, with “WLS-010” for “Z-006”, “human” for “mouse”, “ERS12561743” for “ERS12561806”
# Details: 2 µM
row,Bacterial Biotransformation,Structure (SMILES)
1,Compound metabolized,COC(=O)Nc1nc2ccc(C(=O)c3ccccc3)cc2[nH]1 [MEBENDAZOLE]
2,Compound NOT metabolized,CC(C)(C(=O)O)c1ccc(C(O)CCCN2CCC(C(O)(c3ccccc3)c3ccccc3)CC2)cc1 (stereo not given) [FEXOFENADINE]

# Assay: as §1, with “Z-022” for “Z-006”, “ERS12561821” for “ERS12561806”
# Details: 2 µM
row,Bacterial Biotransformation,Structure (SMILES)
1,Compound metabolized,COC(=O)Nc1nc2ccc(C(=O)c3ccccc3)cc2[nH]1 [MEBENDAZOLE]
2,Compound NOT metabolized,CC(C)(C(=O)O)c1ccc(C(O)CCCN2CCC(C(O)(c3ccccc3)c3ccccc3)CC2)cc1 (stereo not given) [FEXOFENADINE]

# Details: human gut metagenome, 24 h, 2 µM
# Remark: another data set of the same source
row,Bacterial Biotransformation,Structure (SMILES)
1,Compound metabolized,COC(=O)Nc1nc2ccc(C(=O)c3ccccc3)cc2[nH]1 [MEBENDAZOLE]
2,Compound NOT metabolized,CC(C)(C(=O)O)c1ccc(C(O)CCCN2CCC(C(O)(c3ccccc3)c3ccccc3)CC2)cc1 (stereo not given) [FEXOFENADINE]

# Assay: as §1, with “WLS-098” for “Z-006”, “human” for “mouse”, “ERS12561754” for “ERS12561806”
# Details: 2 µM
row,Bacterial Biotransformation,Structure (SMILES)
1,Compound metabolized,COC(=O)Nc1nc2ccc(C(=O)c3ccccc3)cc2[nH]1 [MEBENDAZOLE]
2,Compound NOT metabolized,CC(C)(C(=O)O)c1ccc(C(O)CCCN2CCC(C(O)(c3ccccc3)c3ccccc3)CC2)cc1 (stereo not given) [FEXOFENADINE]

# Assay: as §1, with “WLS-052” for “Z-006”, “human” for “mouse”, “ERS12561747” for “ERS12561806”
# Details: 2 µM
row,Bacterial Biotransformation,Structure (SMILES)
1,Compound metabolized,COC(=O)Nc1nc2ccc(C(=O)c3ccccc3)cc2[nH]1 [MEBENDAZOLE]
2,Compound NOT metabolized,CC(C)(C(=O)O)c1ccc(C(O)CCCN2CCC(C(O)(c3ccccc3)c3ccccc3)CC2)cc1 (stereo not given) [FEXOFENADINE]

# Assay: as §1, with “Z-011” for “Z-006”, “ERS12561811” for “ERS12561806”
# Details: 2 µM
row,Bacterial Biotransformation,Structure (SMILES)
1,Compound metabolized,COC(=O)Nc1nc2ccc(C(=O)c3ccccc3)cc2[nH]1 [MEBENDAZOLE]
2,Compound NOT metabolized,CC(C)(C(=O)O)c1ccc(C(O)CCCN2CCC(C(O)(c3ccccc3)c3ccccc3)CC2)cc1 (stereo not given) [FEXOFENADINE]

# Details: human gut metagenome, 24 h, 2 µM
# Remark: another data set of the same source
row,Bacterial Biotransformation,Structure (SMILES)
1,Compound metabolized,COC(=O)Nc1nc2ccc(C(=O)c3ccccc3)cc2[nH]1 [MEBENDAZOLE]
2,Compound NOT metabolized,CC(C)(C(=O)O)c1ccc(C(O)CCCN2CCC(C(O)(c3ccccc3)c3ccccc3)CC2)cc1 (stereo not given) [FEXOFENADINE]

# Assay: as §1, with “Z-021” for “Z-006”, “to” for “to mouse gut”, “ERS12561820” for “ERS12561806”
# Details: 2 µM
row,Bacterial Biotransformation,Structure (SMILES)
1,Compound metabolized,COC(=O)Nc1nc2ccc(C(=O)c3ccccc3)cc2[nH]1 [MEBENDAZOLE]
2,Compound NOT metabolized,CC(C)(C(=O)O)c1ccc(C(O)CCCN2CCC(C(O)(c3ccccc3)c3ccccc3)CC2)cc1 (stereo not given) [FEXOFENADINE]

# Assay: as §1, with “WLS-027” for “Z-006”, “human” for “mouse”, “ERS12561744” for “ERS12561806”
# Details: 2 µM
row,Bacterial Biotransformation,Structure (SMILES)
1,Compound metabolized,COC(=O)Nc1nc2ccc(C(=O)c3ccccc3)cc2[nH]1 [MEBENDAZOLE]
2,Compound NOT metabolized,CC(C)(C(=O)O)c1ccc(C(O)CCCN2CCC(C(O)(c3ccccc3)c3ccccc3)CC2)cc1 (stereo not given) [FEXOFENADINE]

# Assay: as §1, with “Z-023” for “Z-006”, “to” for “to mouse gut”, “ERS12561822” for “ERS12561806”
# Details: 2 µM
row,Bacterial Biotransformation,Structure (SMILES)
1,Compound metabolized,COC(=O)Nc1nc2ccc(C(=O)c3ccccc3)cc2[nH]1 [MEBENDAZOLE]
2,Compound metabolized,CC(C)(C(=O)O)c1ccc(C(O)CCCN2CCC(C(O)(c3ccccc3)c3ccccc3)CC2)cc1 (stereo not given) [FEXOFENADINE]

# Details: human gut metagenome, 24 h, 2 µM
# Remark: another data set of the same source
row,Bacterial Biotransformation,Structure (SMILES)
1,Compound NOT metabolized,COC(=O)Nc1nc2ccc(C(=O)c3ccccc3)cc2[nH]1 [MEBENDAZOLE]
2,Compound NOT metabolized,CC(C)(C(=O)O)c1ccc(C(O)CCCN2CCC(C(O)(c3ccccc3)c3ccccc3)CC2)cc1 (stereo not given) [FEXOFENADINE]

# Details: human gut metagenome, 24 h, 2 µM
# Remark: another data set of the same source
row,Bacterial Biotransformation,Structure (SMILES)
1,Compound metabolized,COC(=O)Nc1nc2ccc(C(=O)c3ccccc3)cc2[nH]1 [MEBENDAZOLE]
2,Compound NOT metabolized,CC(C)(C(=O)O)c1ccc(C(O)CCCN2CCC(C(O)(c3ccccc3)c3ccccc3)CC2)cc1 (stereo not given) [FEXOFENADINE]

# Details: human gut metagenome, 24 h, 2 µM
# Remark: another data set of the same source
row,Bacterial Biotransformation,Structure (SMILES)
1,Compound NOT metabolized,COC(=O)Nc1nc2ccc(C(=O)c3ccccc3)cc2[nH]1 [MEBENDAZOLE]
2,Compound NOT metabolized,CC(C)(C(=O)O)c1ccc(C(O)CCCN2CCC(C(O)(c3ccccc3)c3ccccc3)CC2)cc1 (stereo not given) [FEXOFENADINE]

# Details: human gut metagenome, 24 h, 2 µM
# Remark: another data set of the same source
row,Bacterial Biotransformation,Structure (SMILES)
1,Compound metabolized,COC(=O)Nc1nc2ccc(C(=O)c3ccccc3)cc2[nH]1 [MEBENDAZOLE]
2,Compound NOT metabolized,CC(C)(C(=O)O)c1ccc(C(O)CCCN2CCC(C(O)(c3ccccc3)c3ccccc3)CC2)cc1 (stereo not given) [FEXOFENADINE]
